Source: patent US11091472B2, “PI-kinase inhibitors with anti-infective activity” (The Board of Trustees of the Leland Stanford Junior …, priority 2016, dated 2021)
“Also recorded” adds a separate entry of the source.

Legend:
PI(4)P = assay: Immunofluorescence of intracellular PI-4 pools in cells; format: cell-based; settings: Huh7.5 cells, uninfected or HCV-infected, 250 nm, 500 nM or 1 uM
Protocol: (§1) To further confirm its mechanism of action the effect of (1) on PI-4 levels was determined in cells using immunofluorescence to monitor the intracellular localized pools of PI-4. The effect of (1) on intracellular pools of PIP2 was tested, which were predicted to be similarly sensitive to inhibition using (1). […] Uninfected Huh7.5 cells or HCV-infected Huh7.5 cells were used. Cells were treated with […], 500 nM or 1 uM concentrations of (1) or vehicle control, and analyzed by immunofluorescence with antibodies to PI(4)P or PI(4,5)P2 along with an antibody to calnexin to control for ER morphology.

HCV = HCV standard replication assay; settings: Hepatitis C virus, read-out: EC50 against HCV
PI(4,5)P2 = assay: Immunofluorescence of intracellular PIP2 pools in cells; format: cell-based; settings: Huh7.5 cells, uninfected or HCV-infected, 250 nm, 500 nM or 1 uM
Protocol: as §1

in vitro = format: cell-based
ER-localized calnexin = assay: Calnexin co-staining as control for ER morphology; format: cell-based; settings: co-stained with antibody to calnexin
Protocol: as §1

HCV replicon = HCV replicon system
PI4KIIIB = PI4KIIIB (Bos taurus (Bovine), UniProt O02810); assay: PI4KIIIβ kinase assay (immunoprecipitated HA-tagged enzyme, [γ-32P]-ATP); format: biochemical; settings: kinase activity
HCV2a = assay: microbe, parasite or virus in culture; format: cell-based, HCV; settings: Hepatitis C virus, Huh7.5, read-out: HCV2a EC50
PI3KC2B = PI3KC2B (Homo sapiens (Human), UniProt O00750); assay: PI3KC2B kinase assay; format: biochemical; settings: kinase activity
Protocol: PI-kinase assay: Compounds are tested in C.1.1. PI kinase assays as described by Shokat et al., “A membrane capture assay for lipid kinase activity.” Nat. Protoc. 2007; 2(10):2459-66.
(§2) Selected compounds of Table 1 and 2 were prepared and tested for inhibition activity in a variety of kinase assays.

PI3K p110a = PI3K p110a (Homo sapiens (Human), UniProt P42336); assay: PI3K p110a kinase assay; format: biochemical; settings: kinase activity
PI3K p110g = PI3K p110g (Homo sapiens (Human), UniProt P48736); assay: PI3K p110g kinase assay; format: biochemical; settings: kinase activity
PI3KC2G = PI3KC2G (Homo sapiens (Human), UniProt O75747); assay: PI3KC2G kinase assay; format: biochemical; settings: kinase activity
Protocol: PI-kinase assay: Compounds are tested in C.1.1. PI kinase assays as described by Shokat et al., “A membrane capture assay for lipid kinase activity.” Nat. Protoc.
as §2

Cell toxicity (CC50) = format: cell-based; settings: human, HuH-7 cells
Ebola = assay: microbe, parasite or virus in culture; format: cell-based; settings: Zaire ebolavirus, read-out: Ebola EC50
HRV = assay: Rhinovirus antiviral assay; format: cell-based; settings: Human rhinovirus sp.
Enterovirus 68 = Enterovirus 68 cell based antiviral assay; settings: Enterovirus D
Dengue virus 2 = Dengue virus 2 cell based antiviral assay
Enterovirus 71 = Enterovirus 71 cell based antiviral assay; settings: Enterovirus A
EV71 = EV71 antiviral assay; format: cell-based; settings: Enterovirus A
Poliovirus (WM-3) = assay: microbe, parasite or virus in culture; format: cell-based; settings: Enterovirus C, read-out: Poliovirus (WM-3) EC50 (uM)
MERS coronavirus = assay: microbe, parasite or virus in culture; format: cell-based; settings: Middle East respiratory syndrome-related coronavirus, read-out: MERS coronavirus EC50 (uM)
NV (GT1) = NV (GT1) cell based antiviral assay
Protocol: Compounds of interest were tested in a variety of cell based assays for antiviral activity.

Influenza A virus H1N1 = Influenza A virus H1N1 cell based antiviral assay
PI4KIIIA = PI4KIIIA (Homo sapiens (Human), UniProt P42356); assay: PI4KIIIα kinase assay (immunoprecipitated HA-tagged enzyme, [γ-32P]-ATP); format: biochemical; settings: kinase activity
Coxsackie virus B3 = Coxsackie virus B3 cell based antiviral assay; settings: Enterovirus B
[1] = system: Adenovirus 5 (Adenoid 75); assay: Adenovirus 5 cell based antiviral assay; settings: Human mastadenovirus C

PI3K p110g, sequence (P48736 whole entry): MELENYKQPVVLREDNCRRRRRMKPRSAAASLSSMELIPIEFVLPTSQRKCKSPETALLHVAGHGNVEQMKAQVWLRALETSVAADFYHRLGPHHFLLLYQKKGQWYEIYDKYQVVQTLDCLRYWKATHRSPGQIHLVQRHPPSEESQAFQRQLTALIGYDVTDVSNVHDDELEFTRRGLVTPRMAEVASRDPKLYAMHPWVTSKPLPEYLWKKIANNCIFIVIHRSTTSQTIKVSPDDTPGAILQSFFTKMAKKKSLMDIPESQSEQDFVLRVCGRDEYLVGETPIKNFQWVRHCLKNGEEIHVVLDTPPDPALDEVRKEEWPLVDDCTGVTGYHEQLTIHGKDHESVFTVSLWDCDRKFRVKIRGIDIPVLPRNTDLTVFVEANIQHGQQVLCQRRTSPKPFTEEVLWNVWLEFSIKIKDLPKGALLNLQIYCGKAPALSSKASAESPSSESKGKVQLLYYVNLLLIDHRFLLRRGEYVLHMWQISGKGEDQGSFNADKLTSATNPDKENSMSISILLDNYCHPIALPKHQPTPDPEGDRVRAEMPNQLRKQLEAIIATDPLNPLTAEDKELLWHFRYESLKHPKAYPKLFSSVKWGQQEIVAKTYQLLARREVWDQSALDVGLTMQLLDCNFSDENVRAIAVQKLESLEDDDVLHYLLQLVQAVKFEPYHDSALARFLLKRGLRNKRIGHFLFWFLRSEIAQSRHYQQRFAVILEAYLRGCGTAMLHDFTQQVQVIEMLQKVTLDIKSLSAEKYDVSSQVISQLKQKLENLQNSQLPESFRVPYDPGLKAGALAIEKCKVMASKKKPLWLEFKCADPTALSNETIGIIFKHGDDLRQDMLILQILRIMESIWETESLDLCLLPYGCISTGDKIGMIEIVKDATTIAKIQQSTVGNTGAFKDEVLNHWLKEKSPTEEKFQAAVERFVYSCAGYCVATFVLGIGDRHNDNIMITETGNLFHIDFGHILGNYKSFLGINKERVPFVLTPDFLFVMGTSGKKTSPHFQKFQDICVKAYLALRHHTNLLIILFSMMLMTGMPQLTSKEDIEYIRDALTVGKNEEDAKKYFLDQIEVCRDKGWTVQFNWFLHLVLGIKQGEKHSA
PI3KC2B, sequence (O00750 whole entry): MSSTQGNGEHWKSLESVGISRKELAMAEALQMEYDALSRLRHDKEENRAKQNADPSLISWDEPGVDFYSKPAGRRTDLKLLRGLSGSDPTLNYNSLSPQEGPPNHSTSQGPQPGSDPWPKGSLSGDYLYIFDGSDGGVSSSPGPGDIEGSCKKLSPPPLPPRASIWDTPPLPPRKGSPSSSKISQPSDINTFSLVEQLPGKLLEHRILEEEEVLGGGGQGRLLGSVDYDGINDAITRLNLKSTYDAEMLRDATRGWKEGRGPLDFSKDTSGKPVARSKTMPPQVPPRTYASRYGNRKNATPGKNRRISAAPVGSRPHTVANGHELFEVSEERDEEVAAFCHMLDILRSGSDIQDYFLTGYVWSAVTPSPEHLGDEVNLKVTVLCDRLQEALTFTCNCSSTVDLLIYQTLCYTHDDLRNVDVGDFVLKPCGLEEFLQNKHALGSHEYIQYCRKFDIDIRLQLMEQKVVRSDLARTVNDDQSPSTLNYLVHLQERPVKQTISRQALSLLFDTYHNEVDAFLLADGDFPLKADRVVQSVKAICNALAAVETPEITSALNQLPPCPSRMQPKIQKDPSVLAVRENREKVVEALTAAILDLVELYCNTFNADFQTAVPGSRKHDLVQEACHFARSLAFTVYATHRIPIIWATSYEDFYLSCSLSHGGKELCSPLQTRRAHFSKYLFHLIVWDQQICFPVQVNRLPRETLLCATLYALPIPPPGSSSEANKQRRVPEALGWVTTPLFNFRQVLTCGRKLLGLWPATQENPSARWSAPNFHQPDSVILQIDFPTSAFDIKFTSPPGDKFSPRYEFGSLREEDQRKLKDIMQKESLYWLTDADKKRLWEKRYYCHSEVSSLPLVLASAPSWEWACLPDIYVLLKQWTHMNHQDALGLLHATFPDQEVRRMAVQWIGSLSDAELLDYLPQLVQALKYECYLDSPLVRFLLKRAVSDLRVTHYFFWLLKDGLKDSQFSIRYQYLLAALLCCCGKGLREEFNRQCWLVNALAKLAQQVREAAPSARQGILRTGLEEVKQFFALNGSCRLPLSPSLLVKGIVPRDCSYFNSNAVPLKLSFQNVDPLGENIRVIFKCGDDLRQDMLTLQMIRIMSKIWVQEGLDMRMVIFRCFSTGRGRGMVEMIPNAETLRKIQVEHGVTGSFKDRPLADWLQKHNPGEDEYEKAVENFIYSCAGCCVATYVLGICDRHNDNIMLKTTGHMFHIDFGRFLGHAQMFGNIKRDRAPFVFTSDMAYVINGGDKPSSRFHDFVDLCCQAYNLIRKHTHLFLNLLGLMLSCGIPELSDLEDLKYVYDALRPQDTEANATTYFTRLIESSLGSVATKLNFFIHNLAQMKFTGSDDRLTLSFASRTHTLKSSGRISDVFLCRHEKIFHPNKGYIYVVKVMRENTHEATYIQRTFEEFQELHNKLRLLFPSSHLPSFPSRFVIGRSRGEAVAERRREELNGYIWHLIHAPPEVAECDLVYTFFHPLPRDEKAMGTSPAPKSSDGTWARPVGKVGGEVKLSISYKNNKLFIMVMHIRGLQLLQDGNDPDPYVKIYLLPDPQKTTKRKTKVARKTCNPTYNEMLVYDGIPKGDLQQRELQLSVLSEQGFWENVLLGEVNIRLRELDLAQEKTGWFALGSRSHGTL
PI3K p110a, sequence (P42336 whole entry): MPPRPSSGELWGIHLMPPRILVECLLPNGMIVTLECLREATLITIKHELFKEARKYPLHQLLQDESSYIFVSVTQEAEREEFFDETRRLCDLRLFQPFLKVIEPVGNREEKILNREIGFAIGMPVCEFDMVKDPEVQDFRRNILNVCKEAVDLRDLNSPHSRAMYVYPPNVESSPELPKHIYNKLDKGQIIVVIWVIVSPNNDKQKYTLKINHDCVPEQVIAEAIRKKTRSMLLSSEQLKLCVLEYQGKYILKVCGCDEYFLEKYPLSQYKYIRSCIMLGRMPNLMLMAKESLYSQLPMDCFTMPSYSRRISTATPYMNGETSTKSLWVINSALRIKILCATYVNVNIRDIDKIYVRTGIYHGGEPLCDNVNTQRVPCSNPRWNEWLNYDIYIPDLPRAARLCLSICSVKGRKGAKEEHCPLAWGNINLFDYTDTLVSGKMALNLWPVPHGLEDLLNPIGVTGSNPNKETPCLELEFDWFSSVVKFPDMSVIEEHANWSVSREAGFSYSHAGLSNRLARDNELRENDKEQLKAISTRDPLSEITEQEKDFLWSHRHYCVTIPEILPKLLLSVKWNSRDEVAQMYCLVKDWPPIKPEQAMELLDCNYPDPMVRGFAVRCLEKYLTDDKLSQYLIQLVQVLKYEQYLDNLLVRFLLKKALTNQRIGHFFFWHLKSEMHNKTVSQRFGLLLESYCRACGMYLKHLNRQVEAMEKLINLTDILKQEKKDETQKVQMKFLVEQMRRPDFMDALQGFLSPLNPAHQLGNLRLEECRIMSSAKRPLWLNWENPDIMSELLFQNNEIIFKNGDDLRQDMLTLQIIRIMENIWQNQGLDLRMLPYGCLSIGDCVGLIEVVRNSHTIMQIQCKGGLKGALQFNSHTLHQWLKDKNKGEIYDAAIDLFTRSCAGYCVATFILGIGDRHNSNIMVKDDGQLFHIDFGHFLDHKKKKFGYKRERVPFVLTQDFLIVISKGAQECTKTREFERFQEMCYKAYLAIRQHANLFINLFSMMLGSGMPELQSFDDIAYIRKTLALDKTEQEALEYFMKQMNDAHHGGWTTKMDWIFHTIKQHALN
PI3K p110a, sequence (P27986 whole entry partner): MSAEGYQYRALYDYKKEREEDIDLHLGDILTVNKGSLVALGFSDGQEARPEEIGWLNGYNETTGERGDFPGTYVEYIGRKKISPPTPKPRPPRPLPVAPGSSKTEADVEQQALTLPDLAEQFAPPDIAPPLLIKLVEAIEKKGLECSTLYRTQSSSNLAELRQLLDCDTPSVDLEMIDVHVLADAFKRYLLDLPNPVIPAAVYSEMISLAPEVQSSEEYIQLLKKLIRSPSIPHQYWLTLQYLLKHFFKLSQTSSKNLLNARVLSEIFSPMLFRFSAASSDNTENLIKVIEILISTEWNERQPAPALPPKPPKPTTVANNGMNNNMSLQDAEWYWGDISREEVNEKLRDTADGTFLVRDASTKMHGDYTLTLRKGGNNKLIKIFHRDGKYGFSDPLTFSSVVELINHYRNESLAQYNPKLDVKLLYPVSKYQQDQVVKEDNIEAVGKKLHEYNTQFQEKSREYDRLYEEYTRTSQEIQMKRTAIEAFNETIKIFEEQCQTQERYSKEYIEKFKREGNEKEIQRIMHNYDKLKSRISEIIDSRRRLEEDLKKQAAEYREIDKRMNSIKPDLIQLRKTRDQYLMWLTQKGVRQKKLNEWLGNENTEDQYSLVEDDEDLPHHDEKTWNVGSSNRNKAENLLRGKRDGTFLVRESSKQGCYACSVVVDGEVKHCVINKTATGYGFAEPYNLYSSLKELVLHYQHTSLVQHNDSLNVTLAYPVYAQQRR

COc1ccc(-c2sc(NC(=O)C3CCCC3)nc2C)cc1S(=O)(=O)Nc1ccc(O)cc1 [Compound 1]
effect on PI-4 (PI(4)P) levels in cells (PI(4)P): dose-dependent decrease; also recorded: decreases | EC50 (HCV): 0.365 µM | effect on intracellular pools of PIP2 (PI(4,5)P2) (PI(4,5)P2): dose-dependent decrease; also recorded: decreases | CC50 (in vitro): > 10 µM | effects on the ER (ER-localized calnexin): absence of any detectable effects on the ER | selection of resistance (HCV replicon): resistance was not able to be selected

COc1ccc(-c2sc(NC(=O)CC3CCCC3)nc2C)cc1S(=O)(=O)Nc1ccc(O)cc1 [Compound S-1]
IC50 (PI4KIIIB): < 0.1 µM | EC50 (HCV2a): 0.001 to 0.1 µM | IC50 (PI3KC2B): > 10 µM | IC50 (PI3K p110a): > 10 µM | IC50 (PI3K p110g): > 10 µM | IC50 (PI3KC2G): < 0.1 µM | CC50 (Cell toxicity (CC50)): > 10 µM

COc1ccc(-c2sc(NCC3CCCCC3)nc2C)cc1S(=O)(=O)Nc1cccc(C(C)(C)C)c1 [Compound S-32]
EC50 (Ebola): 1 to 10 µM | EC50 (HCV2a): 1 to 10 µM | EC50 (HRV): < 0.001 µM | CC50 (Cell toxicity (CC50)): > 10 µM

COc1ccc(NS(=O)(=O)c2cc(-c3sc(NC4CCCCC4)nc3C)ccc2OC)c(C)c1 [Compound S-66]
EC50 (HCV2a): 1 to 10 µM | EC50 (HRV): < 0.001 µM | CC50 (Cell toxicity (CC50)): > 10 µM

COc1ccc(-c2sc(NC3CCCCCC3)nc2C)cc1S(=O)(=O)Nc1c(C)cccc1C [Compound S-98]
EC50 (Enterovirus 68): < 0.001 µM | IC50 (PI4KIIIB): < 0.1 µM | EC50 (Dengue virus 2): > 10 µM | EC50 (HCV2a): 1 to 10 µM | EC50 (Enterovirus 71): 0.001 to 0.1 µM | EC50 (HRV): < 0.001 µM | EC50 (EV71): < 0.001 µM | EC50 (Poliovirus (WM-3)): 0.001 to 0.1 µM | EC50 (MERS coronavirus): > 10 µM | EC50 (NV (GT1)): 1 to 10 µM | IC50 (PI3K p110a): > 10 µM | EC50 (Influenza A virus H1N1): > 10 µM | IC50 (PI4KIIIA): > 10 µM | EC50 (Coxsackie virus B3): 0.001 to 0.1 µM | IC50 (PI3K p110g): > 10 µM | EC50 [1]: > 10 µM | CC50 (Cell toxicity (CC50)): > 10 µM

COc1ccc(-c2sc(NCC3CCCCC3)nc2C)cc1S(=O)(=O)NC1CCCNC1 (stereo not shown) [Compound S-115]
EC50 (HCV2a): 0.1 to 1 µM | CC50 (Cell toxicity (CC50)): > 10 µM

COc1ccc(-c2sc(N[C@H](C)CC3CCCCC3)nc2C)cc1S(=O)(=O)NC1CCNCC1 [Compound S-145]
IC50 (PI4KIIIB): < 0.1 µM | IC50 (PI3K p110a): > 10 µM | IC50 (PI4KIIIA): 0.1 to 1 µM | IC50 (PI3K p110g): > 10 µM

COc1ccc(-c2sc(N[C@H](C)C3CCCCC3)nc2C)cc1S(=O)(=O)NC1CCNCC1 [Compound S-147]
IC50 (PI4KIIIB): < 0.1 µM | IC50 (PI3K p110a): > 10 µM | IC50 (PI4KIIIA): 0.1 to 1 µM | IC50 (PI3K p110g): > 10 µM

COc1ccc(-c2sc(NC(=O)CCC3CCCC3)nc2C)cc1S(=O)(=O)NC1CCNCC1 [Compound S-160]
IC50 (PI4KIIIB): < 0.1 µM | IC50 (PI3KC2B): > 10 µM | IC50 (PI3K p110g): > 10 µM | IC50 (PI3KC2G): 0.1 to 1 µM

COc1ccc(-c2sc(NC(=O)CC3CCOCC3)nc2C)cc1S(=O)(=O)Nc1cc(C)cc(O)c1 [Compound S-169]
IC50 (PI4KIIIB): < 0.1 µM | IC50 (PI3K p110a): > 10 µM | IC50 (PI4KIIIA): < 0.1 µM | IC50 (PI3K p110g): > 10 µM | IC50 (PI3KC2G): > 10 µM

COc1ccc(-c2sc(NC(=O)CC3CCOCC3)nc2C)cc1S(=O)(=O)Nc1ccc(F)cc1 [Compound S-170]
IC50 (PI4KIIIB): < 0.1 µM | IC50 (PI3K p110a): > 10 µM | IC50 (PI4KIIIA): < 0.1 µM | IC50 (PI3K p110g): > 10 µM | IC50 (PI3KC2G): > 10 µM

COc1ccc(-c2sc(N[C@H](C)C3CCCCC3)nc2C)cc1S(=O)(=O)N[C@H]1CC[C@H](O)CC1 [Compound S-193]
IC50 (PI4KIIIB): < 0.1 µM | IC50 (PI3KC2B): > 10 µM | IC50 (PI3KC2G): > 10 µM
